Assay [1] deals with CCRF-CEM cells. Description: Senescence gene qPCR array / RT-PCR. The class given is cell-based, human. The note with it: array of 84 senescence genes, COL1A1 not validated by RT-PCR. From the text:
To further study the role of IRAK-1,-4 signaling in cellular senescence, we compared the expression of 84 key genes involved in the initiation and progression of senescence. […] Expression levels of CDKN1C, EGR1 and ID1 were also altered in all four T-ALL patient samples collected from IRAK-1,-4 inhibitor-treated NSG mice (FIG. 15E).

The test system of assay [2] is patient T-ALL cells. Description: Patient T-ALL numbers in NSG mice (flow cytometry). In kind it is in vivo. The note with it: patient T-ALL cells in irradiated NSG mice; 10 mg/Kg i.p. days 7, 10, 13; FIG. 12. The procedure: FIG. 12. […] NSG mice were irradiated (400 cGy) one day prior to intravenous injection of patient T-ALL cells (6×10^6 cells/mouse). Once 100 T-ALL cells/ul of blood were detected, mice were received one intraperitoneal injection with IRAK-1,-4 inhibitor (10 mg/Kg) or an equal volume of control vehicle (DMSO) on days 7, 10 and 13. Numbers of T-ALL cells (CD7^+) in peripheral blood were determined on day 27 and D21 by flow cytometry as described in FIG. 1. All the data shown are representative of two independent experiments (±SD) with three mice per group. Representative dot plots from bone marrow are shown in A (left panel). ANOVA; *P<0.05.
CCRF-CEM (2×10^6) cells were injected intravenously (i.v.) into female NOD.Cg-Prkdc^scid Il2rg^tm1WJl/SzJ IL2RG (NSG) mice (Jackson Laboratories, Bar Harbor, Me.). […] In some experiments mice were injected i.v. with TLR1-TLR2 ligand (2.5 μg) two days after injecting cells. In other experiments mice were injected intraperitoneally (i.p.) with IRAK-1,-4 inhibitor (10 mg/kg) 3, 6, and 9 days (CCRF-CEM cells) or 7, 10, and 13 days (patient T-ALL cells) after detecting CD7^+ T-ALL cells in circulation. The numbers of T-ALL cells in the bone marrow, spleen, liver, and in circulation were determined by staining cells with anti-human CD7 and/or CD5. […]

Assay [3] has as its system SupT1. In words: Proliferation (3H-thymidine) of SupT1. In kind it is cell-based, human. From the text:
(§1) CCRF-CEM, CEM/C1, CEM/C2, CEM-C7, Jurkat, Loucy, Molt-4, HSB-2, SUP-T1, Hut 78, HH, Hut 102, MO, and H9 T-leukemia and T-lymphoma cell lines were purchased from the American Type Culture Collection (Manassas, Va., USA). All of the cell lines were initially expanded and cryopreserved within one month of receipt. Cells were typically used for 6 months at which time a fresh vial of cryopreserved cells was used. Total T cells from healthy donors were isolated via negative selection followed by positive selection using a CD3+ selection kit (Invitrogen, Carlsbad, Calif.). T cells were isolated from patients with T-ALL bone marrow or peripheral blood samples containing more than 70% leukemia cells using a CD2+ isolation kit (STEMCELL Technologies, Vancouver, Canada). All tissues were collected under institutional IRB-approved protocols and all participants gave written informed assent/consent. For in vitro experiments, T-ALL cells were cultured in AIM-V medium supplemented with 20% human AB serum in the presence of recombinant human stem cell factor (50 ng/mL; Amgen, Thousand Oaks, Calif.), insulin (20 nM; Sigma-Aldrich, St Louis, Mo., USA) and IL-7 (50 ng/mL; R&D Systems, Minneapolis, Minn., USA). In other experiments, protein lysate was collected using the Full Moon Biosystems (Sunnyvale, Calif., USA) buffer prior to protein examination by western blot or protein array.
(§2) Cells were cultured in a 96-well plate (Corning Costar, Corning, N.Y., USA) with various concentrations of TLR ligands 1-9, starting at 10 μg/ml, in a final volume of 200 ul. TLR ligands were diluted 2-fold. Cell lines (25-40×10^3/well) were cultured for 54 hours, whereas fresh patient-derived T-ALL cells (200×10^3/well) were cultured for 30 hours prior to adding [^3H]-thymidine for 18 hours. After this time point, cells were harvested with a Packard Filter-Mate-96 cell harvester (Perkin Elmer, Waltham, Mass., USA) and counted on Packard Top Count-NXT (Perkin Elmer, Waltham, Mass., USA). Results were expressed as average counts per minute (cpm). In some experiments CCRF-CEM cells were pre-treated with TLR1-TLR2 ligand (Pam3CysK4; 2.5 ug/ml) for 48 hrs, washed, and then cultured in the presence of varying concentrations of FBS. Forty-eight hours later, proliferation (±SD) was determined by ^3H-thymidine incorporation. Alternatively, apoptosis was measured by flow cytometry after staining cells with Annexin-V (BD Pharmingen, San Diego, Calif., USA) and propidium iodide (Sigma). Cell number was counted under microscopy by staining cells with trypan blue.
(§3) The following TLR ligands were purchased from Invivogen (San Diego, Calif., USA): tripalmitoyl-S-(bis(palmitoyloxy)propyl)-Cys-Ser-(Lys)3-Lys (TLR1-2); Poly I:C (TLR3); ultrapure S. Minnesota Lipopolysaccharide (TLR4); S. typhimurium flagellin (TLR5); FSL-1 (TLR2/6); Imiquimod (TLR7); ssRNA40/Lyovec (TLR8); CpG-ODN 2006 (TLR9).

The subject of assay [4] is Hut 102. In words: Proliferation (3H-thymidine) of Hut 102. In kind it is cell-based, human. The following applies: 3H-thymidine uptake, 72 h.
Source text: as §1, with “In other experiments, protein lysate was collected using the Full Moon Biosystems (Sunnyvale, Calif., USA) buffer prior to protein examination by western blot or protein array.” left out
Cells were cultured in a 96-well plate (Corning Costar, Corning, N.Y., USA) with various concentrations of TLR ligands 1-9, starting at 10 μg/ml, in a final volume of 200 ul. […] After this time point, cells were harvested with a Packard Filter-Mate-96 cell harvester (Perkin Elmer, Waltham, Mass., USA) and counted on Packard Top Count-NXT (Perkin Elmer, Waltham, Mass., USA). Results were expressed as average counts per minute (cpm). […] Forty-eight hours later, proliferation (±SD) was determined by ^3H-thymidine incorporation. Alternatively, apoptosis was measured by flow cytometry after staining cells with Annexin-V (BD Pharmingen, San Diego, Calif., USA) and propidium iodide (Sigma). Cell number was counted under microscopy by staining cells with trypan blue. […]

For assay [5], the system named is H9. In words: Proliferation (3H-thymidine) of H9. The class given is cell-based, human.
Source text: as §1, §2, §3

Data on 2 molecules can be found in patent publication US9464326B2, “Total and phosphorylated IL-1 receptor-associated kinase-1 and IL-1 receptor-associated kinase-4 as a biomarker for cancer progression and chemotherapy resistance” (University of Maryland, Baltimore, priority 2012, dated 2016).

For the molecule `O=C(Nc1nc2ccccc2n1CCN1CCOCC1)c1cccc([N+](=O)[O-])c1` [IRAK-1,-4 inhibitor], the “expression of CDKN1C, COL1A1, EGR1, ID1, PLAU and SERPINES” value in assay [1] is “significantly up- or down-regulated”. Also, the “T-ALL numbers (CD7+) in peripheral blood” value in assay [2] is reported as “reduces T-ALL numbers”.

Take “tripalmitoyl-S-(bis(palmitoyloxy)propyl)-Cys-Ser-(Lys)3-Lys [Pam3Cysk4]”: the “Proliferative effects of TLR ligands” value in assay [3] (SupT1, 3H-thymidine uptake, 72 h) was “∘”; in assay [4] it was “∘”; in assay [5] (H9, 3H-thymidine uptake, 72 h), “∘”. Moreover, the “effect on proliferation (in words)” value in assay [3] (SupT1 T-lymphoblastic leukemia, FIG. 1A) is on record as “no effect on proliferation”; in assay [5] (H9 T-lymphoma, FIG. 1A), “no effect on proliferation”.
